{
  "source": "ChEMBL document CHEMBL1146477",
  "about": "“Bioactive constituents from Asparagus cochinchinensis” (J Nat Prod, 2004)",
  "key": {"[1]": {"experiment": "Cytotoxicity against human HOG.R5 cells", "assay_type": "cell-based"}, "KB": {"system": "KB", "experiment": "Cytotoxicity against human KB cells", "assay_type": "functional, cell-based"}, "Col2": {"system": "Col2", "experiment": "Cytotoxicity against human Col2 cells", "assay_type": "functional, cell-based"}, "LNCaP": {"system": "LNCaP", "experiment": "Cytotoxicity against human LNCAP cells", "assay_type": "functional, cell-based"}, "Lu1": {"system": "Lu1", "experiment": "Cytotoxicity against human Lu1 cells", "assay_type": "functional, cell-based"}, "HUVEC": {"system": "HUVEC", "experiment": "Cytotoxicity against HUVEC", "assay_type": "cell-based", "details": "Homo sapiens"}, "[2]": {"system": "Human immunodeficiency virus 1", "experiment": "Antiviral activity against HIV1 3B infected in human HOG.R5 cells after 4 days", "assay_type": "functional, organism-based", "details": "Human immunodeficiency virus 1, 3B, HOG.R5, 96 h"}},
  "data": [
    {"molecule": "COc1cc(C#C/C=C/COc2ccc(O)cc2)ccc1O", "values": [
      {"measurement": "CC50", "setting": "[1]", "result": "< 17", "unit": "µM"},
      {"measurement": "IC50", "setting": "KB", "result": 40.5, "unit": "µM"},
      {"measurement": "IC50", "setting": "Col2", "result": "> 20", "unit": "µg/mL"},
      {"measurement": "IC50", "setting": "LNCaP", "result": "> 20", "unit": "µg/mL"},
      {"measurement": "IC50", "setting": "Lu1", "result": 66.5, "unit": "µM"},
      {"measurement": "IC50", "setting": "HUVEC", "result": "> 20", "unit": "µg/mL"}
    ]},
    {"molecule": "C=CC(/C=C\\c1ccc(O)cc1)c1ccc(OC)c(O)c1", "note": "(stereo not given)", "values": [
      {"measurement": "CC50", "setting": "[1]", "result": 12, "unit": "µM"},
      {"measurement": "IC50", "setting": "KB", "result": 31.9, "unit": "µM"},
      {"measurement": "IC50", "setting": "Col2", "result": 41.4, "unit": "µM"},
      {"measurement": "IC50", "setting": "LNCaP", "result": 41.1, "unit": "µM"},
      {"measurement": "IC50", "setting": "Lu1", "result": 25.5, "unit": "µM"},
      {"measurement": "IC50", "setting": "HUVEC", "result": 58.1, "unit": "µM"}
    ]},
    {"molecule": "C=CC(CC(=O)c1ccc(O)cc1)c1ccc(O)cc1", "note": "(stereo not given)", "values": [
      {"measurement": "IC50", "setting": "[2]", "result": 74.6, "unit": "µM"},
      {"measurement": "CC50", "setting": "[1]", "result": 76.8, "unit": "µM"},
      {"measurement": "IC50", "setting": "KB", "result": "> 20", "unit": "µg/mL"},
      {"measurement": "IC50", "setting": "Col2", "result": "> 20", "unit": "µg/mL"},
      {"measurement": "IC50", "setting": "LNCaP", "result": "> 20", "unit": "µg/mL"},
      {"measurement": "IC50", "setting": "Lu1", "result": "> 20", "unit": "µg/mL"},
      {"measurement": "IC50", "setting": "HUVEC", "result": "> 20", "unit": "µg/mL"}
    ]},
    {"molecule": "C=CC(/C=C\\c1ccc(O)cc1)c1ccc(O)c(OC)c1", "note": "(stereo not given)", "values": [
      {"measurement": "CC50", "setting": "[1]", "result": 24.1, "unit": "µM"},
      {"measurement": "IC50", "setting": "KB", "result": 31.9, "unit": "µM"},
      {"measurement": "IC50", "setting": "Col2", "result": 22.3, "unit": "µM"},
      {"measurement": "IC50", "setting": "LNCaP", "result": 23.4, "unit": "µM"},
      {"measurement": "IC50", "setting": "Lu1", "result": 15.9, "unit": "µM"},
      {"measurement": "IC50", "setting": "HUVEC", "result": 23.7, "unit": "µM"}
    ]},
    {"molecule": "C[C@H]1CC[C@@]2(OC1)O[C@H]1C[C@H]3[C@@H]4CC[C@@H]5C[C@@H](O[C@@H]6O[C@H](CO[C@@H]7OC[C@H](O)[C@H](O)[C@H]7O)[C@@H](O[C@@H]7OC[C@H](O)[C@H](O)[C@H]7O)[C@H](O)[C@H]6O[C@@H]6O[C@H](CO)[C@@H](O)[C@H](O)[C@H]6O)CC[C@]5(C)[C@H]4CC[C@]3(C)[C@H]1[C@@H]2C", "note": "[ASPARACOSIDE]", "values": [
      {"measurement": "CC50", "setting": "[1]", "result": "< 10", "unit": "µM"},
      {"measurement": "IC50", "setting": "KB", "result": 4.8, "unit": "µM"},
      {"measurement": "IC50", "setting": "Col2", "result": 5.4, "unit": "µM"},
      {"measurement": "IC50", "setting": "LNCaP", "result": 10.1, "unit": "µM"},
      {"measurement": "IC50", "setting": "Lu1", "result": 4.2, "unit": "µM"},
      {"measurement": "IC50", "setting": "HUVEC", "result": 4.1, "unit": "µM"}
    ]},
    {"molecule": "C[C@@H]1CC[C@@]2(OC1)O[C@H]1C[C@H]3[C@@H]4CCC5=CC(=O)CC[C@]5(C)[C@H]4C[C@@H](O)[C@]3(C)[C@@]1(O)[C@@H]2C", "note": "[ASPARACOSIN A]", "values": [
      {"measurement": "IC50", "setting": "KB", "result": 24.1, "unit": "µM"},
      {"measurement": "IC50", "setting": "Col2", "result": "> 20", "unit": "µg/mL"},
      {"measurement": "IC50", "setting": "LNCaP", "result": "> 20", "unit": "µg/mL"},
      {"measurement": "IC50", "setting": "Lu1", "result": "> 20", "unit": "µg/mL"},
      {"measurement": "IC50", "setting": "HUVEC", "result": "> 20", "unit": "µg/mL"}
    ]},
    {"molecule": "COC1(OC)CC[C@@]2(C)[C@H](CC[C@@H]3[C@@H]2CC(=O)[C@@]2(C)[C@H]3C[C@@H]3O[C@]4(CC[C@@H](C)CO4)[C@@H](C)[C@@]32O)C1", "note": "[ASPARACOSIN B]", "values": [
      {"measurement": "IC50", "setting": "KB", "result": "> 20", "unit": "µg/mL"},
      {"measurement": "IC50", "setting": "Col2", "result": "> 20", "unit": "µg/mL"},
      {"measurement": "IC50", "setting": "LNCaP", "result": "> 20", "unit": "µg/mL"},
      {"measurement": "IC50", "setting": "Lu1", "result": "> 20", "unit": "µg/mL"},
      {"measurement": "IC50", "setting": "HUVEC", "result": "> 20", "unit": "µg/mL"}
    ]},
    {"molecule": "Oc1ccc(C#C/C=C/COc2ccc(O)cc2)cc1", "note": "[ASPARENYDIOL]", "values": [
      {"measurement": "CC50", "setting": "[1]", "result": "< 18", "unit": "µM"},
      {"measurement": "IC50", "setting": "KB", "result": 8.5, "unit": "µM"},
      {"measurement": "IC50", "setting": "Col2", "result": "> 20", "unit": "µg/mL"},
      {"measurement": "IC50", "setting": "LNCaP", "result": "> 20", "unit": "µg/mL"},
      {"measurement": "IC50", "setting": "Lu1", "result": 70.1, "unit": "µM"},
      {"measurement": "IC50", "setting": "HUVEC", "result": "> 20", "unit": "µg/mL"}
    ]},
    {"molecule": "COc1cc(/C=C/CO)ccc1O", "note": "[CONIFERYL ALCOHOL]", "values": [
      {"measurement": "IC50", "setting": "KB", "result": "> 20", "unit": "µg/mL"},
      {"measurement": "IC50", "setting": "Col2", "result": "> 20", "unit": "µg/mL"},
      {"measurement": "IC50", "setting": "LNCaP", "result": "> 20", "unit": "µg/mL"},
      {"measurement": "IC50", "setting": "Lu1", "result": "> 20", "unit": "µg/mL"},
      {"measurement": "IC50", "setting": "HUVEC", "result": "> 20", "unit": "µg/mL"}
    ]},
    {"molecule": "Cc1c2ccncc2c(C)c2c1[nH]c1ccccc12", "note": "[ELLIPTECINE]", "values": [
      {"measurement": "CC50", "setting": "[1]", "result": 0.08, "unit": "µM"},
      {"measurement": "IC50", "setting": "KB", "result": 0.16, "unit": "µM"},
      {"measurement": "IC50", "setting": "Col2", "result": 1.22, "unit": "µM"},
      {"measurement": "IC50", "setting": "LNCaP", "result": 3.25, "unit": "µM"},
      {"measurement": "IC50", "setting": "Lu1", "result": 0.08, "unit": "µM"},
      {"measurement": "IC50", "setting": "HUVEC", "result": 0.37, "unit": "µM"}
    ]},
    {"molecule": "C=C[C@H](/C=C\\c1ccc(O)cc1)c1ccc(O)cc1", "note": "[NYASOL]", "values": [
      {"measurement": "IC50", "setting": "[2]", "result": 46.4, "unit": "µM"},
      {"measurement": "CC50", "setting": "[1]", "result": 58.1, "unit": "µM"},
      {"measurement": "IC50", "setting": "KB", "result": "> 20", "unit": "µg/mL"},
      {"measurement": "IC50", "setting": "Col2", "result": "> 20", "unit": "µg/mL"},
      {"measurement": "IC50", "setting": "LNCaP", "result": "> 20", "unit": "µg/mL"},
      {"measurement": "IC50", "setting": "Lu1", "result": "> 20", "unit": "µg/mL"},
      {"measurement": "IC50", "setting": "HUVEC", "result": "> 20", "unit": "µg/mL"}
    ]}
  ]
}
